# From patent publication US20240190872A1, “FABI INHIBITORS FOR GRAM-NEGATIVE PATHOGENS” (THE BOARD OF TRUSTEES OF THE UNIVERSITY OF ILLINOIS, priority 2021, published 2024)
# Assays:
# S. aureus ATCC 29213 = assay: Antimicrobial susceptibility test (MIC), micro-dilution broth; type: cell-based; conditions: Staphylococcus aureus, ATCC29213; S. aureus ATCC 29213; read-out: MIC S. aureus 29213
# In short: (§1)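 CLSI micro-dilution broth method in cation-adjusted Mueller-Hinton broth, in biological triplicate; human serum (pooled, filtered) was also used.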
# E. coli MG1655 = assay: Antimicrobial susceptibility test (MIC); type: cell-based; conditions: Escherichia coli, MG1655
# In short: as §1
# K. pneumoniae BAA 2472 = assay: microbe, parasite or virus in culture; type: cell-based; conditions: Klebsiella pneumoniae, BAA2472, read-out: MIC K. pneumoniae BAA 2472, clinical isolate
# In short: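 MICs by CLSI broth microdilution in cation-adjusted Mueller-Hinton broth, performed in biological triplicate. Strains: efflux-deficient E. coli ΔtolC (JW5503, KEIO collection) and K. pneumoniae BAA-2472 (ATCC).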
# [1] = tested on: 100 A. baumannii clinical isolates; assay: MIC90 against 100 A. baumannii clinical isolates; type: cell-based; conditions: Acinetobacter baumannii
# Procedure: Antimicrobial susceptibility tests. Susceptibility testing was performed in biological triplicate, using the micro-dilution broth method as outlined by the Clinical and Laboratory Standards Institute. Bacteria were cultured with cation-adjusted Muller-Hinton broth (Sigma-Aldrich, Cat# 90922) in round-bottom 96-well plates (Corning, Cat# 3788). Human serum (pooled gender, 0.2 μm filtered) was purchased from BioIVT (Hicksville, NY).
# H. sapiens HFF-1 = assay: In-vitro cytotoxicity; type: cell-based
# H. sapiens A549 = assay: In-vitro cytotoxicity; type: cell-based
# in vivo = conditions: female, C57BL/6, mouse, in vivo
# Procedure: Mouse MTD of Debio-1452-NH3. The protocol was approved by the IACUC at the University of Illinois at Urbana-Champaign (Protocol Number:16144). In these studies, 10- to 12-week-old female C57BL/6 mice purchased from Charles River were used. The maximum tolerate dose (MTD) of single compound was determined first. Debio-1452 amine analogues were formulated in 20% sulfobutyl ether β-cyclodextrin in sterile water. Debio-1452-NH3 (1), and compounds 2 and 3 were given by IP injection and mice were monitored for signs of toxicity for 2 weeks (single dose). For multiple dose, the compound was given by daily IP for 5 consecutive days and mice were monitored for signs of toxicity for 1 month. MTD was the highest dosage with acceptable toxicity (e.g. <20% weight loss). Single dose MTDs were initially determined. […] The MTD of Debio-1452-NH3 (1) was used to inform the dosing schedule used in subsequent efficacy studies.
# in vitro = conditions: dog
# HERG = HERG (Homo sapiens (Human), UniProt Q12809); assay: cell-based
# CYP 2C9 = CYP 2C9 (Homo sapiens (Human), UniProt P11712); assay: biochemical
# CYP 2C19 = CYP 2C19 (Homo sapiens (Human), UniProt P33261); assay: biochemical
# CYP 1A2 = CYP 1A2 (Homo sapiens (Human), UniProt P05177); assay: CYP inhibition
# Plasma protein binding [2] = assay: Plasma protein binding
# Plasma protein binding [3] = assay: Plasma protein binding; remark: listed apart in the source
# [4] = Pharmacokinetic study in neutropenic infected mice
# Sequence of CYP 2C9 (P11712 whole entry): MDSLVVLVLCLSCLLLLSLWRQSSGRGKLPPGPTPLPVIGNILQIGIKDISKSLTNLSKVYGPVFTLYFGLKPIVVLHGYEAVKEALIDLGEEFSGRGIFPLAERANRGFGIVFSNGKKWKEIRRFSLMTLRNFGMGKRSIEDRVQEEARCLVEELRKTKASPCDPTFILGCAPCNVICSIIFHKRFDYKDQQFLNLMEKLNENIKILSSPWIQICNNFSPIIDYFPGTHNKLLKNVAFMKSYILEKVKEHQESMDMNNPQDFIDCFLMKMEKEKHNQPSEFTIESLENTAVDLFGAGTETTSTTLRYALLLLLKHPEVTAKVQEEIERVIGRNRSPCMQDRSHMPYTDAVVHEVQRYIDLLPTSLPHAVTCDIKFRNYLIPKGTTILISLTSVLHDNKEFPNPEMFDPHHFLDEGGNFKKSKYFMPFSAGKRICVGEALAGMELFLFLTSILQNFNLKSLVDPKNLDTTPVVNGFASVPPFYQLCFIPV
# Sequence of CYP 2C19 (P33261 whole entry): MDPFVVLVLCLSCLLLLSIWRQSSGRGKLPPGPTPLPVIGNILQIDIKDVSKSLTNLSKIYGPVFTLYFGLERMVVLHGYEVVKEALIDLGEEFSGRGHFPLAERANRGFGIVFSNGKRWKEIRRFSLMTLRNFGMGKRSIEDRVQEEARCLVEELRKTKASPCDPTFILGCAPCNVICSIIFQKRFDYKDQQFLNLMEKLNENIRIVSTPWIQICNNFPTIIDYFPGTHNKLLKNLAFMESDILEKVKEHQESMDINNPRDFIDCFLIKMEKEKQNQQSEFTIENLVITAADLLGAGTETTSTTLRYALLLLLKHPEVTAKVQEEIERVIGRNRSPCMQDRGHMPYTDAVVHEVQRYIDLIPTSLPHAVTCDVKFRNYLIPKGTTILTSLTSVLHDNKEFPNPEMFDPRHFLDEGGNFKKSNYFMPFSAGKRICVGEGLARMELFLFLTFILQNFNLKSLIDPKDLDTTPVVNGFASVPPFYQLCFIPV
# Sequence of CYP 1A2 (P05177 whole entry): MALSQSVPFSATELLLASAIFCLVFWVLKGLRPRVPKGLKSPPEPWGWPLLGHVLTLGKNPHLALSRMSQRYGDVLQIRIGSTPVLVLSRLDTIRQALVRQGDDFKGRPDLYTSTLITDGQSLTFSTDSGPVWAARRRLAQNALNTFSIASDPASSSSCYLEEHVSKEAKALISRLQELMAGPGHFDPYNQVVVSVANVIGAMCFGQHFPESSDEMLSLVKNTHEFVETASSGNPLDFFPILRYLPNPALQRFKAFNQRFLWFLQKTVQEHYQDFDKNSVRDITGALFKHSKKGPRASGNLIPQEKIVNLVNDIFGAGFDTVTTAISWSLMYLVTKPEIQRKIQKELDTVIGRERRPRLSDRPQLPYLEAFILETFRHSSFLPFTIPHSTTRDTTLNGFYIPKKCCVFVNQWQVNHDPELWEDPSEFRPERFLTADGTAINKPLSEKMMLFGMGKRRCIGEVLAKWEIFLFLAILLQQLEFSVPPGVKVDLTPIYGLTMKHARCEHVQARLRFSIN
# Sequence of HERG (Q12809 whole entry): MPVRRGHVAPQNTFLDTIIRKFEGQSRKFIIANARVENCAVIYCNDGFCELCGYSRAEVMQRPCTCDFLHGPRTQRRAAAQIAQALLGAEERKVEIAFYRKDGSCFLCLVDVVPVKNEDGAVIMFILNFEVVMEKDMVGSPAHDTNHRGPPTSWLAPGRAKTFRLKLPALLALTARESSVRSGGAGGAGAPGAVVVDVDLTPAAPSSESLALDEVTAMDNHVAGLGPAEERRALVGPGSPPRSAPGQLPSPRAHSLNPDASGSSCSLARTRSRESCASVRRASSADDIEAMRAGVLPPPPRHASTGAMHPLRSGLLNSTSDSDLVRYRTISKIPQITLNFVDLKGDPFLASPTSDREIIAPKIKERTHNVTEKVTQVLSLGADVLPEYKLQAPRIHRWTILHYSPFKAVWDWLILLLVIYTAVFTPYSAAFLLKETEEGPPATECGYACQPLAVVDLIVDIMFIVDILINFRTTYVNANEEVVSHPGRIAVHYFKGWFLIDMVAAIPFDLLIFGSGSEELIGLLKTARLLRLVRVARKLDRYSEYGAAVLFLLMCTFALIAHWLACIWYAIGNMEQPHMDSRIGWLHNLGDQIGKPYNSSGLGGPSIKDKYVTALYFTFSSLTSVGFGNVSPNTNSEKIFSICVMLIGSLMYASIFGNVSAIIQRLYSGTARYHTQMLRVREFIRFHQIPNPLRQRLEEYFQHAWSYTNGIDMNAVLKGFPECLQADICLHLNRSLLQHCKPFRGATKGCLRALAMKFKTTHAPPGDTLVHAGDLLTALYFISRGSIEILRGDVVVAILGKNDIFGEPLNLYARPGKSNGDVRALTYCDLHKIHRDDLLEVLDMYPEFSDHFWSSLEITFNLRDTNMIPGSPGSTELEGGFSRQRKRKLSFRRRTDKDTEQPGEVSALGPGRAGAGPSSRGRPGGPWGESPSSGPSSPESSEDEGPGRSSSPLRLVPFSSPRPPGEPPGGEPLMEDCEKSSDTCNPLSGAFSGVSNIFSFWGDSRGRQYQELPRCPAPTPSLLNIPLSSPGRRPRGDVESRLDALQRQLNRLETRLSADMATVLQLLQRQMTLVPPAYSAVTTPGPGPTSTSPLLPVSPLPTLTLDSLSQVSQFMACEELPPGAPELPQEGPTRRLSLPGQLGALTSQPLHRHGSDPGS
smiles,measurement,setting,value
"Cc1c(CN(C)C(=O)/C=C/c2cnc3c(c2)CC[C@H](N)C(=O)N3)oc2ccccc12 [(S)-11, (S,E)-3-(7-amino-8-oxo-6,7,8,9-tetrahydro-5H-pyrido[2,3-b]azepin-3-yl)-N-methyl-N-((3-methylbenzofuran-2-yl)methyl)acrylamide]",MIC,S. aureus ATCC 29213,4 ng/mL
same,MIC,E. coli MG1655,2 µg/mL
same,MIC,K. pneumoniae BAA 2472,4 µg/mL
same,MIC90,[1],8 µg/mL
same,inhibition at 30 µM,H. sapiens HFF-1,9.5 ± 3.4%
same,IC50,H. sapiens HFF-1; cytotoxicity,112 ± 11 µM
same,inhibition at 30 µM,H. sapiens A549,-1.2 ± 3.5%
same,IC50,H. sapiens A549; cytotoxicity,114 ± 3 µM
same,MTD at 5 d,in vivo,200 mg/kg
same,efflux ratio,in vitro; MDCK-MDR1,9.4
same,Papp,"in vitro; MDCK-MDR1, MDR1-MDCK Permeability Papp A:B",0.6 ×10⁻⁶ cm/s
same,Papp,"in vitro; MDCK-MDR1, MDR1-MDCK Permeability Papp B:A",5.7 ×10⁻⁶ cm/s
same,IC50,HERG,21.8 µM
same,IC50,CYP 2C9,27 µM
same,IC50,CYP 2C19,60 µM
same,IC50,CYP 1A2,31 µM
same,stability in mouse plasma (in words),Plasma stability,considerable instability
same,"Plasma protein binding, Mouse",Plasma protein binding [2]; Mouse,96%
same,fraction unbound,"Plasma protein binding [2]; mouse, plasma",0.04
same,"Plasma protein binding, Human",Plasma protein binding [3]; Human,94%
same,fraction unbound,"Plasma protein binding [3]; human, plasma",0.06
same,AUClast,"[4]; PLASMA, 75 mg/kg IV",45.4 µg·h/mL
same,CL,"[4]; PLASMA, 75 mg/kg IV",26.9 mL/min/kg
same,Cmax,"[4]; PLASMA, 75 mg/kg IV",34.6 µg/mL
same,AUClast,"[4]; PLASMA, 100 mg/kg IV",69.8 µg·h/mL
same,CL,"[4]; PLASMA, 100 mg/kg IV",23.5 mL/min/kg
same,Cmax,"[4]; PLASMA, 100 mg/kg IV",47.3 µg/mL
same,AUClast,"[4]; THIGH, 75 mg/kg IV",65.2 µg·h/mL
same,CL,"[4]; THIGH, 75 mg/kg IV",18.9 mL/min/kg
same,Cmax,"[4]; THIGH, 75 mg/kg IV",33.0 µg/g
same,AUClast,"[4]; THIGH, 100 mg/kg IV",112 µg·h/mL
same,CL,"[4]; THIGH, 100 mg/kg IV",14.7 mL/min/kg
same,Cmax,"[4]; THIGH, 100 mg/kg IV",60.2 µg/g
